PubChem BioAssay AID2060486 (Molecular Pharmacology Branch, DTP, NCI, 2025)

System: IGROV1 complex spheroids (HUVEC, MSC), viability % test/control
Test: Anticancer human tumor IGROV1 cell line growth inhibition [GQUAD];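 further: spheroids exposed to compounds for 7 days before readout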;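 on viability, T/C: 100% = DMSO vehicle control viability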
Settings: for IC50: curve of first compound; for viability, T/C: stronger effect = lower value; active means viability on the fitted dose curve at most 10% of control; inactive means the rest
Procedure, shortened: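 Viability of tumor cells grown as complex spheroids with endothelial and stromal cells, exposed to drug combinations. Top concentration at or near clinical Cmax (else 10 microM), diluted in half-log increments.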

[1] = second compound 0.0316 µM, first compound 0.0316 µM
[2] = second compound 0.0316 µM, first compound 0.316 µM
[3] = second compound 0.1 µM, first compound 0.0316 µM
[4] = second compound 0.1 µM, first compound 0.316 µM
[5] = second compound 0.316 µM, first compound 0.0316 µM
[6] = second compound 0.316 µM, first compound 0.316 µM
[7] = second compound 1 µM, first compound 0.0316 µM
[8] = second compound 1 µM, first compound 0.316 µM
[9] = second compound 3.16 µM, first compound 0.0316 µM
[10] = second compound 3.16 µM, first compound 0.316 µM
[11] = second compound 10 µM, first compound 0.0316 µM
[12] = second compound 10 µM, first compound 0.316 µM
[13] = second compound 0.0316 µM, first compound 0.1 µM
[14] = second compound 0.0316 µM, first compound 1 µM
[15] = second compound 0.0316 µM, first compound 3.16 µM
[16] = second compound 0.0316 µM, first compound 10 µM
[17] = second compound 0.1 µM, first compound 0.1 µM
[18] = second compound 0.1 µM, first compound 1 µM
[19] = second compound 0.1 µM, first compound 3.16 µM
[20] = second compound 0.1 µM, first compound 10 µM
[21] = second compound 0.316 µM, first compound 0.1 µM
[22] = second compound 0.316 µM, first compound 1 µM
[23] = second compound 0.316 µM, first compound 3.16 µM
[24] = second compound 0.316 µM, first compound 10 µM
[25] = second compound 1 µM, first compound 0.1 µM
[26] = second compound 1 µM, first compound 1 µM
[27] = second compound 1 µM, first compound 3.16 µM
[28] = second compound 1 µM, first compound 10 µM
[29] = second compound 3.16 µM, first compound 0.1 µM
[30] = second compound 3.16 µM, first compound 1 µM
[31] = second compound 3.16 µM, first compound 3.16 µM
[32] = second compound 3.16 µM, first compound 10 µM
[33] = second compound 10 µM, first compound 0.1 µM
[34] = second compound 10 µM, first compound 1 µM
[35] = second compound 10 µM, first compound 3.16 µM
[36] = second compound 10 µM, first compound 10 µM

Cn1ncnc1[C@H]1c2n[nH]c(=O)c3cc(F)cc(c23)N[C@@H]1c1ccc(F)cc1 + Cc1cnc(CNC(=O)c2c(=O)c3ccc(N4CCCN(C)CC4)nc3n3c2sc2ccccc23)cn1
0.0219 µM: IC50 (second compound 0.0316 µM)
< 0.000999 µM: IC50 (second compound 0.1 µM) | IC50 (second compound 0.316 µM) | IC50 (second compound 1 µM) | IC50 (second compound 3.16 µM) | IC50 (second compound 10 µM)
inactive: viability, T/C (second compound 0.0316 µM, first compound 0.000999 µM) 73.9% | viability, T/C (second compound 0.0316 µM, first compound 0.00316 µM) 67.1% | viability, T/C (second compound 0.0316 µM, first compound 0.00999 µM) 60% | viability, T/C [1] 41% | viability, T/C (second compound 0.0316 µM, first compound 0.0999 µM) 38.5% | viability, T/C [2] 19.3% | viability, T/C (second compound 0.1 µM, first compound 0.000999 µM) 44.2% | viability, T/C (second compound 0.1 µM, first compound 0.00316 µM) 34.8% | viability, T/C (second compound 0.1 µM, first compound 0.00999 µM) 30.9% | viability, T/C [3] 21.6% | viability, T/C (second compound 0.1 µM, first compound 0.0999 µM) 21.6% | viability, T/C [4] 19% | viability, T/C (second compound 0.316 µM, first compound 0.000999 µM) 29.5% | viability, T/C (second compound 0.316 µM, first compound 0.00316 µM) 18.9% | viability, T/C (second compound 0.316 µM, first compound 0.00999 µM) 20.2% | viability, T/C [5] 16.8% | viability, T/C (second compound 0.316 µM, first compound 0.0999 µM) 16.5% | viability, T/C [6] 12.4% | viability, T/C (second compound 1 µM, first compound 0.000999 µM) 17.3% | viability, T/C (second compound 1 µM, first compound 0.00316 µM) 11% | viability, T/C (second compound 1 µM, first compound 0.00999 µM) 14.8% | viability, T/C [7] 14% | viability, T/C (second compound 1 µM, first compound 0.0999 µM) 12.7% | viability, T/C [8] 12.1% | viability, T/C (second compound 3.16 µM, first compound 0.000999 µM) 11.3%
active: viability, T/C (second compound 3.16 µM, first compound 0.00316 µM) 8.42% | viability, T/C (second compound 3.16 µM, first compound 0.00999 µM) 10.4% | viability, T/C [9] 13.2% | viability, T/C (second compound 3.16 µM, first compound 0.0999 µM) 9.17% | viability, T/C [10] 7.53% | viability, T/C (second compound 10 µM, first compound 0.000999 µM) 8.16% | viability, T/C (second compound 10 µM, first compound 0.00316 µM) 10% | viability, T/C (second compound 10 µM, first compound 0.00999 µM) 10.5% | viability, T/C [11] 9.96% | viability, T/C (second compound 10 µM, first compound 0.0999 µM) 10.5% | viability, T/C [12] 8.19%

O=C(c1cc(Cc2n[nH]c(=O)c3ccccc23)ccc1F)N1CCN(C(=O)C2CC2)CC1 + Cc1cnc(CNC(=O)c2c(=O)c3ccc(N4CCCN(C)CC4)nc3n3c2sc2ccccc23)cn1
< 0.0316 µM: IC50 (second compound 0.1 µM) | IC50 (second compound 0.316 µM) | IC50 (second compound 1 µM) | IC50 (second compound 3.16 µM) | IC50 (second compound 10 µM)
inactive: viability, T/C [1] 58.6% | viability, T/C [13] 73% | viability, T/C [2] 53.6% | viability, T/C [14] 55.8% | viability, T/C [15] 43.5% | viability, T/C [16] 20.8% | viability, T/C [3] 42.1% | viability, T/C [17] 39.9% | viability, T/C [4] 34% | viability, T/C [18] 27.9% | viability, T/C [19] 24.2% | viability, T/C [20] 17.8% | viability, T/C [5] 22.4% | viability, T/C [21] 27.7% | viability, T/C [6] 24% | viability, T/C [22] 23.5% | viability, T/C [23] 16.9% | viability, T/C [24] 18.1% | viability, T/C [7] 14.4% | viability, T/C [25] 17.3% | viability, T/C [8] 18.9% | viability, T/C [26] 16.9% | viability, T/C [27] 16% | viability, T/C [28] 12.9% | viability, T/C [9] 9.91% | viability, T/C [29] 10.6% | viability, T/C [10] 10.1% | viability, T/C [30] 10.6% | viability, T/C [31] 11.1% | viability, T/C [32] 10.5%
1.61 µM: IC50 (second compound 0.0316 µM)
active: viability, T/C [11] 8.62% | viability, T/C [33] 11.4% | viability, T/C [12] 9.01% | viability, T/C [34] 8.13% | viability, T/C [35] 9.75% | viability, T/C [36] 9.07%

O=c1[nH]cc(F)c(=O)[nH]1 + Cc1cnc(CNC(=O)c2c(=O)c3ccc(N4CCCN(C)CC4)nc3n3c2sc2ccccc23)cn1
< 0.0316 µM: IC50 (second compound 0.1 µM) | IC50 (second compound 0.316 µM) | IC50 (second compound 1 µM) | IC50 (second compound 3.16 µM) | IC50 (second compound 10 µM)
inactive: viability, T/C [1] 69.8% | viability, T/C [13] 66.3% | viability, T/C [2] 51.5% | viability, T/C [14] 66.9% | viability, T/C [15] 63.7% | viability, T/C [16] 20.2% | viability, T/C [3] 39.9% | viability, T/C [17] 38.9% | viability, T/C [4] 41.9% | viability, T/C [18] 36.1% | viability, T/C [19] 35.7% | viability, T/C [20] 17.7% | viability, T/C [5] 27.9% | viability, T/C [21] 23.6% | viability, T/C [6] 29.5% | viability, T/C [22] 25.2% | viability, T/C [23] 25.8% | viability, T/C [24] 15.1% | viability, T/C [7] 15.6% | viability, T/C [25] 15.3% | viability, T/C [8] 17.3% | viability, T/C [26] 19% | viability, T/C [27] 20.4% | viability, T/C [28] 9.16% | viability, T/C [9] 11.3% | viability, T/C [29] 15.5% | viability, T/C [10] 14.1% | viability, T/C [30] 9.51% | viability, T/C [31] 12.9% | viability, T/C [32] 7.27% | viability, T/C [11] 11.2%
4.52 µM: IC50 (second compound 0.0316 µM)
active: viability, T/C [33] 8.66% | viability, T/C [12] 10.8% | viability, T/C [34] 9.81% | viability, T/C [35] 9.32% | viability, T/C [36] 5.96%
